Test results published in US6673839B1, “Pharmaceutical compositions with antitumour activity” (Universita' Degli Studi di Catania, priority 1998, dated 2004).
Where a name gives a salt, the structure may show the parent alone.

Key:
[1] = test system: Cells from Nasopharynx Carcinoma Explant; experiment: In vitro short-term chemosensitivity assay (MTT); format: cell-based, human; conditions: Table 1, 24 h
Protocol: The effects of L-aC on cells from 4 primitive epidermoid carcinomas of the larynx and 1 primitive undifferentiated carcinoma of the nasopharynx were tested.
Tissue fragments from the tumour mass were mechanically dissociated in Hank's solutions adding an antibiotic and an antifungal to obtain a cell monosuspension free of agglomerates. The resulting suspension was centrifuged at 1200 rpm for 5 minutes and the pellet was resuspended in MEM culture medium supplemented with 10% of patient serum, to obtain a concentration of 10^5 cells/ml. Subsequently, 180 μl of the resulting suspension were dispensed in microplate wells and incubated under 5% CO2 atmosphere at 37° C. for 3 days. After that, the antitumor medicaments were added in the amount of 20 μl for each well, at a concentration of 0.1×, 1× and 10× the maximum serum concentrations that can usually be reached in clinical practice. 24 h after the beginning of the exposure to the antitumour medicament, 100 μl of MTT were added, and after 4 h, a further 150 μl of dimethylsulfoxide were added.
The optical density was evaluated by a Uniscan microspectrophotometer with a […] wavelength filter. Cytotoxicity was evaluated as percentage of the optical density of the treated sample compared with the optical density of the control.
Bleomycin (BLEC), […] (CDDP), 5-fluoruracil (5-FU), vincristine (VCR), epidoxorubicin (Epi-Dx) and methotrexate (MTX) were tested for comparison purposes.
L-aC was tested at the following concentrations: 0.2-2-20 mg/ml.
In vitro short-term chemosensitivity assay (according to Hill and coll.)
(Cell Vitality Percentage After Exposure to the Antitumoral)—Raw Data
(Cells from Nasopharynx Carcinoma Explant)

[2] = test system: Acute promyelocytic leukemia cell line (HL60); experiment: Methylene blue assay on stabilized human neoplastic cell lines; format: cell-based
Protocol: (§1) The effects of L-aC on stabilized human neoplastic cell lines were tested using the methylene blue assay.
(§2) Acute promyelocytic leukemia cell line (HL60) and prostate (Du 145), colon (HT 29) and breast (MCF 7) adenocarcinoma cell lines have been used.
(§3) Cell suspensions at concentrations of 10^5 cells/ml were prepared.
(§4) 100 μl of the obtained cell suspension were inoculated on 96 well plates and incubated at 37° for 12 hours, to obtain cell adhesion to the plates. After 12 hours, L-aC was added at the concentrations of 0.2 mg/ml, 2 mg/ml, 20 mg/ml. After 72 hours, the culture medium was removed and 100 μl of 100% ethanol were added for 30 min. Subsequently ethanol was removed and 1% methylene-blue was added for 2 hours. The dye was then removed and the plates were dried before adding 1M HCl.
(§5) The cytotoxicity percentage was calculated using the following formula:
(§6) (1−[O^D treated cells/O^D control cells)×100.
(§7) The optical density was evaluated by Uniskan micro-spectrophotometer with 630 nmwavelength filter.

[3] = test system: prostate (Du 145) adenocarcinoma cell line; experiment: as above; format: cell-based; conditions: prostate carcinoma line
Protocol: as §1, §2, §3, §4, §5, §6, §7

CC(=O)OC(CC(=O)[O-])C[N+](C)(C)C [L-aC, L-acetylcarnitine hydrochloride]
Cell Vitality Percentage After Exposure ([1]; 0.1x maximum clinical serum concentration (L-aC tested at 0.2-2-20 mg/ml)): 58% | Cell Vitality Percentage After Exposure ([1]; 1x maximum clinical serum concentration): 4.8% | Cell Vitality Percentage After Exposure ([1]; 10x maximum clinical serum concentration): 4% | cytotoxicity [2]: 52% | cytotoxicity [3]: 58%
